Data published in patent publication US20260258446A1, “SMALL MOLECULE ENHANCERS FOR ADENO-[…] PRODUCTION” (priority 2023, published 2026).
Structures can show the parent of a compound that is named as a salt.

Assays:
[1] = system: AAV8 production in Viral Production 2.0 cells (293-VP 2.0); assay: AAV8 production by transient transfection, genome titer by dPCR; assay type: cell-based, human
Method: Candidate small molecules were selected via literature-based searches and encompassed general classes of epigenetic modifiers, PI3K inhibitors, cell cycle modulators, innate immune activators/inhibitors, proteosome inhibitors, kinase inhibitors, free fatty acids, endoplasmic reticulum stress inducers/inhibitors, and autophagy activators/inhibitors. Various candidate small molecule were analyzed in AAV2 or AAV8 production. The initial test concentrations of each small molecule were determined by previous uses of the molecules found in the literature for a variety of applications. For each candidate small molecule, cells were triple transfected with three plasmids encoding the rep/cap genes, gene of interest flanked by […] terminal repeats (ITR) and adenovirus helper molecules. The rep/cap plasmid encoded either AAV2 or AAV8 capsids. The plasmid DNA (pDNA) was combined with the TransIT-VirusGEN® transfection reagent and added to 293-derived suspension cells. The cells were then immediately treated with the small molecule. AAV production occurred over the course of 72 hours, after which virus was harvested. Genomes were assessed by digital PCR (dPCR), and capsids by a specific ELISA or homogeneous based luciferase assay utilizing capsid specific antibodies. The percentage of full capsids was calculated by dividing the total number of genomes by the total number of capsids. A small molecule was considered a successful enhancer of AAV production if it increased AAV as measured by viral genomes 1.5-fold over an untreated control and was not detrimental to the percentage of full capsids, or if it increased the percentage of full capsids 1.5-fold over an untreated control and was not detrimental to the total number of produced AAV as measured by viral genomes. The experimental design may identify small molecules that enhance AAV production.
Viral Production Cells 2.0 (293-VP 2.0; Thermo Fisher Cat. No. A49784) were maintained in Viral Production Media (VPM; Thermo Fisher Cat. No. A4817901) supplemented with 4 mM GlutaMAX™ (Thermo Fisher Cat. No. 35050061). Expi293F™ Cells (Thermo Fisher Cat. No. A14527) were maintained in Expi293™ Expression Medium (Thermo Fisher Cat. No. A1435101). Both cell lines were maintained at the supplier recommended 8% CO2 and 37° C. on a 2.5 cm orbital shaker at 125 rpm.
The day before transfection, cells were passaged to ensure the cells were actively dividing and would reach a density of 4.0-5.0×10^6 cells/mL the day of transfection. The day of transfection, cells were seeded in 6-well non-tissue culture treated plates (Corning, Cat. No. 351146) at a density of 3.0×10^6 cells/mL. A 1 mg/mL DNA solution composed of a 1:1:1 plasmid concentration ratio of a transfer vector (Agilent, Cat. No. 240074-51), an AAV2 RepCap Vector (Aldevron, Cat. No. pALD-AAV2) or an AAV5 RepCap Vector (Aldevron, Cat. No. pALD-AAV5) or an AAV8 RepCap vector (Genemedi, Cat. No. P-RC09) or an AAV9 RepCap vector (Genemedi, Cat. No. p-RC13), and a helper vector (Agilent Cat. No. 240071-54) was formed in water. For each milliliter of culture, 3 μL of TransIT-VirusGEN® (Mirus Bio LLC, Cat. No. MIR 6700) and 2 μg of DNA were added to a final volume of 100 μL Phosphate-buffered saline (PBS; Corning, Cat. No. 21-040-CV) for a final transfection reagent to DNA ratio of 1.5:1. This mixture was incubated at room temperature for 30 minutes to allow transfection complexes to form, after which 100 μL was added per milliliter of culture for a final complexation volume of 10%. In some instances, cells were transfected with 1 μL FectoVIR®-AAV (Polyplus, Cat. No. 101000044) per million cells and 1 μg DNA per million cells for a final transfection reagent to DNA ratio of 1:1, and a final complexation volume of 5%. In some instances, cells were transfected with 1 μL PEIPro® (Polyplus, Cat. No. 101000017) per million cells and 1 μg DNA per million cells for a final transfection reagent to DNA ratio of 1:1, and a final complexation volume of 10%. […]

[2] = system: AAV2 or AAV8 production in 293-derived suspension cells; assay: cells; assay type: cell-based, human
Method: Various candidate small molecule were analyzed in AAV2 or AAV8 production. […] For each candidate small molecule, cells were triple transfected with three plasmids encoding the rep/cap genes, gene of interest flanked by internal terminal repeats (ITR) and adenovirus helper molecules. The rep/cap plasmid encoded either AAV2 or AAV8 capsids. The plasmid DNA (pDNA) was combined with the TransIT-VirusGEN® transfection reagent and added to 293-derived suspension cells. The cells were then immediately treated with the small molecule. AAV production occurred over the course of 72 hours, after which virus was harvested. Genomes were assessed by digital PCR (dPCR), and capsids by a specific ELISA or homogeneous based luciferase assay utilizing capsid specific antibodies. The percentage of full capsids was calculated by dividing the total number of genomes by the total number of capsids. A small molecule was considered a successful enhancer of AAV production if it increased AAV as measured by viral genomes 1.5-fold over an untreated control and was not detrimental to the percentage of full capsids, or if it increased the percentage of full capsids 1.5-fold over an untreated control and was not detrimental to the total number of produced AAV as measured by viral genomes. […]

[3] = from about 0.5 μM to about 40 μM

## CC[C@@H]1C(=O)N(C)c2cnc(Nc3ccc(C(=O)NC4CCN(C)CC4)cc3OC)nc2N1C1CCCC1 [Compound A, (R)-4-((8-cyclopentyl-7-ethyl-5-methyl-6-oxo-5,6,7,8-tetrahydropteridin-2-yl)amino)-3-methoxy-N-(1-methylpiperidin-4-yl)benzamide]
[1]; from about 0.025 μM to about 1 μM
  Successful enhancer of AAV8 production (genomes or % full capsids 1.5-fold over untreated control): Successful enhancers

## CN[C@H]1CCc2cc(OC)c(OC)c(OC)c2-c2ccc(OC)c(=O)cc21 [Compound B, (S)-1,2,3,10-tetramethoxy-7-(methylamino)-6,7-dihydrobenzo[a]heptalen-9 (5H)-one]
[1]; from about 0.0673 μM to about 0.2019 μM
  Successful enhancer of AAV8 production (genomes or % full capsids 1.5-fold over untreated control): Successful enhancers

## CC(=O)O[C@@]12CO[C@@H]1C[C@H](O)[C@@]1(C)C(=O)[C@H](O)C3=C(C)[C@@H](OC(=O)[C@H](O)[C@@H](NC(=O)OC(C)(C)C)c4ccccc4)C[C@@](O)([C@@H](OC(=O)c4ccccc4)[C@H]21)C3(C)C [Compound C, [(1S,2S,3R,4S,7R,9S, 10S, 12R, 15S)-4-acetyloxy-1,9,12-trihydroxy-15-[(2R,3S)-2-hydroxy-3-[(2-methylpropan-2-yl)oxycarbonylamino]-3-phenylpropanoyl]oxy-10,14,17,17-tetramethyl-11-oxo-6-oxatetracyclo[11.3.1.0^3,10.0^4,7]heptadec-13-en-2-yl]benzoate]
[1]; from 1 μM to about 20 μM
  Successful enhancer of AAV8 production (genomes or % full capsids 1.5-fold over untreated control): Successful enhancers
[1]; from about 1 μM to about 20 μM
  Increase in AAV8 titers ("Top Hits"): highest increase in AAV8 titers

## CCn1cc(-c2ccnc3[nH]c(-c4cccc(CN(C)C)c4)cc23)c(-c2ccc(NC(=O)N(C)C)cc2)n1 [Compound D, 3-(4-(4-(2-(3-((dimethylamino)methyl)phenyl)-1H-pyrrolo[2,3-b]pyridin-4-yl)-1-ethyl-1H-pyrazol-3-yl)phenyl)-1,1-dimethylurea]
[2]; Homo sapiens, 72 h, read-out: Fold increase in genomes over no enhancer control
  fold induction at 0.05 µM: 1.57 to 1.91
[1]; about 0.05 μM
  Successful enhancer of AAV8 production (genomes or % full capsids 1.5-fold over untreated control): Successful enhancers

## CC(=O)O[C@H]1C(=O)[C@@]2(C)[C@H]([C@H](OC(=O)c3ccccc3)[C@]3(O)C[C@H](OC(=O)[C@H](O)[C@@H](NC(=O)c4ccccc4)c4ccccc4)C(C)=C1C3(C)C)[C@]1(OC(C)=O)CO[C@@H]1C[C@@H]2O [Compound F, [(1S,2S,3R,4S,7R,9S,10S,12R, 15S)-4,12-diacetyloxy-15-[(2R,3S)-3-benzamido-2-hydroxy-3-phenylpropanoyl]oxy-1,9-dihydroxy-10,14,17,17-tetramethyl-11-oxo-6-oxatetracyclo[11.3.1.0^3,10.0^4,7]heptadec-13-en-2-yl]benzoate]
[1]; [3]
  Increase in AAV8 titers ("Top Hits"): highest increase in AAV8 titers
  Successful enhancer of AAV8 production (genomes or % full capsids 1.5-fold over untreated control): Successful enhancers

## CC(=O)NCC(=O)N1[C@@H]2CC[C@H]1c1ccc(Nc3ncc(C(F)(F)F)c(NC4CCC4)n3)cc12 [Compound G, N-[2-[(1R,8S)-4-[[4-(cyclobutylamino)-5-(trifluoromethyl)pyrimidin-2-yl]amino]-11-azatricyclo[6.2.1.0^2,7]undeca-2 (7),3,5-trien-11-yl]-2-oxoethyl]acetamide]
[1]; from about 0.02 μM to about 0.5 μM
  Successful enhancer of AAV8 production (genomes or % full capsids 1.5-fold over untreated control): Successful enhancers

## O=C(CCCCCCC(=O)Nc1ccccc1)NO [SAHA, suberoylanilide hydroxamic acid]
[1]; from about 0.5 μM to about 1 μM
  Successful enhancer of AAV8 production (genomes or % full capsids 1.5-fold over untreated control): Successful enhancers

## CCC(=O)[O-].[Na+] [Sodium Propionate]
[2]; 5000 μM-10000 μM
  Fold increase in genomes over no enhancer control: 1.20-1.48 fold

## CCCC(CCC)C(=O)[O-].[Na+] [Valproic Acid Sodium Salt]
[1]; from about 400 μM to about 2500 μM
  Successful enhancer of AAV8 production (genomes or % full capsids 1.5-fold over untreated control): Successful enhancers

## CC[C@]1(O)C[C@@H]2CN(CCc3c([nH]c4ccccc34)[C@@](C(=O)OC)(c3cc4c(cc3OC)N(C)[C@H]3[C@@](O)(C(=O)OC)[C@H](OC(C)=O)[C@]5(CC)C=CCN6CC[C@]43[C@@H]65)C2)C1 [Vinblastine Sulfate]
[1]; from about 2.5 μM to about 15 μM
  Successful enhancer of AAV8 production (genomes or % full capsids 1.5-fold over untreated control): Successful enhancers
